The text below walks through data of ChEMBL document CHEMBL5380806, “Cyclopropenone, Cyclopropeniminium Ion, and Cyclopropenethione as Novel Electrophilic Warheads for Potential Target Discovery of Triple-Negative Breast Cancer” (J Med Chem, 2023).

Assay [1] has as its target T1, Double-stranded RNA-specific adenosine deaminase (Homo sapiens) (UniProt P55265).
T1 sequence (whole entry): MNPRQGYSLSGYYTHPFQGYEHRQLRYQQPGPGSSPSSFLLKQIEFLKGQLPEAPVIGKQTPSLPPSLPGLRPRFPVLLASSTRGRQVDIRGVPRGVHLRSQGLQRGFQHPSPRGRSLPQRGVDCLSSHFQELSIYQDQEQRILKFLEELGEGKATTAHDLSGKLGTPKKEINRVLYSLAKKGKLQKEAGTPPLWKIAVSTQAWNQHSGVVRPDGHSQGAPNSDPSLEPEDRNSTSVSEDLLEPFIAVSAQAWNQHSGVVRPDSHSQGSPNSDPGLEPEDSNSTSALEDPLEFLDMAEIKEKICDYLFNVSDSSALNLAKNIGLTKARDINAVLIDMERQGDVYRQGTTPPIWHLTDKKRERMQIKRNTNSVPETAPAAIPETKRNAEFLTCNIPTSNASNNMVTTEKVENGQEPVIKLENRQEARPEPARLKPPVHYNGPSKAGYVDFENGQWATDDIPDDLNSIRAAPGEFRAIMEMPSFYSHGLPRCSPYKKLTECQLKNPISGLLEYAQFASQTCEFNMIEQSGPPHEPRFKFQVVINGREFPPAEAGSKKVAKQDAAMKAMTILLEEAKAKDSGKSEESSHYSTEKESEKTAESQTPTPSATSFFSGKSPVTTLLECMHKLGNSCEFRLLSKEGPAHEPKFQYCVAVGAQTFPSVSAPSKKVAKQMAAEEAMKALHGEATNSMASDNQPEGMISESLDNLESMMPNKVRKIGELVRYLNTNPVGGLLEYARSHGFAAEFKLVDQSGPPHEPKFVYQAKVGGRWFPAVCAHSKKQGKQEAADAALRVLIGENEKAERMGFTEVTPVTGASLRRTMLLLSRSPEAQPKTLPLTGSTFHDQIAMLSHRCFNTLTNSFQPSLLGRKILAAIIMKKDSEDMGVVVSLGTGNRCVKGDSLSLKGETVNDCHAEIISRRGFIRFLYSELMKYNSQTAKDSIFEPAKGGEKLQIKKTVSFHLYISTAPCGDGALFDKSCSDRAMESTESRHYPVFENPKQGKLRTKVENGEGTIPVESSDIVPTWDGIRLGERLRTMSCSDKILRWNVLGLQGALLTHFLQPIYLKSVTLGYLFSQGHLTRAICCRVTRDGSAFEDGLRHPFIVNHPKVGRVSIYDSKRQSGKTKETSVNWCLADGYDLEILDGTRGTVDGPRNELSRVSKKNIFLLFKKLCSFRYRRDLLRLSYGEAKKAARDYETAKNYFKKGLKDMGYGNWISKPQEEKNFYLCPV
Kind of assay: Binding affinity to ADAR in human MDA-MB-231 cells at 20 uM incubated for 2 to 5 hrs by pull down based LC-MS analysis. Type of assay: cell-based. Conditions: time 2-5 hrs.

Assay [2] addresses T2, Peptidyl-prolyl cis-trans isomerase FKBP4 (Homo sapiens) (UniProt Q02790).
T2 sequence (whole entry): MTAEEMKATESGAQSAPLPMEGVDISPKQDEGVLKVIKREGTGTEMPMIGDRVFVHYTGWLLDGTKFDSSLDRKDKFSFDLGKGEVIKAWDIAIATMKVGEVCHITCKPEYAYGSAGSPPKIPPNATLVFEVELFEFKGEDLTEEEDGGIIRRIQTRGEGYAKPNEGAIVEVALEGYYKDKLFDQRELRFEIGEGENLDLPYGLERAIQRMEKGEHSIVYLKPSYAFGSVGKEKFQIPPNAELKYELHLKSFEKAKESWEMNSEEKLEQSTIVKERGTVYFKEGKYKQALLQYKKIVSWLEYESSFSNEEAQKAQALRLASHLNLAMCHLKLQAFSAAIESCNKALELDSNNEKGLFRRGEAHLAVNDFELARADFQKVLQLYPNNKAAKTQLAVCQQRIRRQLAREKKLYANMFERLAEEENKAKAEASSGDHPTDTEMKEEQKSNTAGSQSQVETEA
The experiment in a line: Binding affinity to recombinant FKBP4 (unknown origin) at 10 uM by Western blot analysis.

A further assay has as its system MDA-MB-231. The experiment in a line: Induction of apoptosis in human MDA-MB-231 cells assessed as necrotic cells at 5 uM incubated for 48 hrs by Annexin V-FITC/PI staining based analysis (reference value: 1.06%). Type of assay: functional.
For assay [3], the system named is GTPase KRas (Homo sapiens), P01116 [G12C]. The experiment in a line: Binding affinity to N-terminal 6his/SUMO-tagged KRAS G12C mutant (unknown origin) expressed in Escherichia coli BL21 (DE3) cells at 10 uM incubated for 2 to 7 hrs by fluorescence based SDS-PAGE analysis. As to conditions: time 2-7 hrs.
Sequence of GTPase KRas (Homo sapiens), P01116 [G12C] (P01116 whole entry G12C): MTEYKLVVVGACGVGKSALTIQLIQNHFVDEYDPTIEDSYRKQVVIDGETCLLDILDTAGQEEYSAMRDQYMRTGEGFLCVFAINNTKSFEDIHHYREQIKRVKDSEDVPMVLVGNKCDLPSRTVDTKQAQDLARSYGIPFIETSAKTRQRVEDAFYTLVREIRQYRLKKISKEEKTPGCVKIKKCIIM

Calls of active or inactive are those of the source. No cut-off for these calls is given here.

In the case of `C#CCOc1ccc(-c2cc2=O)cc1`, the outcome in assay [1], in assay [2] and in assay [3] was Active. Also, in the assay on MDA-MB-231, the Activity is recorded as 2.49%.
